# Experimental data published in ChEMBL document CHEMBL1131360, “Bis-S-acyl-2-thioethyl (SATE)-bearing monophosphate prodrug of beta-L-FD4C as potent anti-HBV agent” (Bioorg Med Chem Lett, 1998).
# Tests used:
# Colon 26 [1] = assay: Tested for cytotoxicity in murine colon cancer (C26); type: functional, cell-based; settings: Mus musculus
# CCRF-CEM = assay: Tested for cytotoxicity in human T-cell lymphoblastic leukemia cell line (CEM); type: functional, cell-based
# B16 [2] = assay: Tested for cytotoxicity in murine melanoma (B16); type: functional, cell-based; settings: Mus musculus
# HepG2 [3] = assay: Tested for cytotoxicity in human hepatoma cell (2.2.15); type: functional, cell-based
# M109 [4] = assay: Tested for cytotoxicity in murine lung carcinoma (M109); type: functional, cell-based; settings: Mus musculus
# HepG2 [5] = assay: Tested for the ability to inhibit extracellular HBV DNA synthesis at a concentration of 10 nM; type: functional; settings: Homo sapiens
# HepG2 [6] = assay: Tested for cytotoxicity in human hepatoma cell (2.2.15); not cytotoxic at the highest concentration tested (70 uM); type: functional, cell-based
# HepG2 [7] = assay: Tested for the ability to inhibit HBV replication at a concentration of 19 nM using human hepatoblastoma cell line HepG2 2.2.15; type: functional
# HepG2 [8] = assay: Tested for the ability to inhibit HBV DNA synthesis at a concentration of 4 nM using human hepatoblastoma cell line HepG2 2.2.15; type: functional
# Colon 26 [9] = assay: Tested for cytotoxicity in murine colon cancer (C26); not cytotoxic at the highest concentration tested (70 uM); type: functional, cell-based, Mus musculus
# B16 [10] = assay: Tested for cytotoxicity in murine melanoma (B16); not cytotoxic at the highest concentration tested (70 uM); type: functional, cell-based, Mus musculus
# HepG2 [11] = assay: Tested for effective concentration against HBV treated with drug every 3 days for 9 days using human hepatoblastoma cell line HepG2 2.2.15; type: functional, cell-based
# M109 [12] = assay: Tested for cytotoxicity in murine lung carcinoma (M109); not cytotoxic at the highest concentration tested (70 uM); type: functional, cell-based, Mus musculus
# HepG2 [13] = assay: Tested for the ability to inhibit HBV replication at a concentration of 40 nM using human hepatoblastoma cell line HepG2 2.2.15; type: functional
# HepG2 [14] = assay: Tested for the ability to inhibit HBV DNA synthesis at a concentration of 7 nM using human hepatoblastoma cell line HepG2 2.2.15; type: functional
EC50 (HepG2 [11]) [µM],Structure (SMILES),IC50 (Colon 26 [1]) [µM],IC50 (CCRF-CEM) [µM],IC50 (B16 [2]) [µM],IC50 (HepG2 [3]) [µM],IC50 (M109 [4]) [µM],inhibition at 0.01 µM (HepG2 [5]) [%],IC50 (HepG2 [6]),inhibition at 0.019 µM (HepG2 [7]) [%],inhibition at 0.004 µM (HepG2 [8]) [%],IC50 (Colon 26 [9]),IC50 (B16 [10]),IC50 (M109 [12]),inhibition at 0.04 µM (HepG2 [13]) [%],inhibition at 0.007 µM (HepG2 [14]) [%]
,CC(=O)SCCOP(=O)(OCCS)OC[C@H]1C=C[C@@H](n2cc(F)c(N)nc2=O)O1 (some centres not stated),> 70,52,> 70,> 70,> 70,,,,,,,,,
,CC(=O)SCCOP(=O)(OCCSC(C)=O)OC[C@H]1CC[C@@H](n2cnc3c(N)ncnc32)O1,> 70,13,> 70,> 70,> 70,,,,,,,,,
0.002,CC(=O)SCCOP(=O)(OCCSC(C)=O)OC[C@H]1C=C[C@@H](n2cc(F)c(N)nc2=O)O1,,52,,,,85,Not Active,90,50,Not Active,Not Active,Not Active,,
0.017,Nc1nc(=O)n([C@@H]2C=C[C@H](CO)O2)cc1F [ELVUCITABINE],,13,,,,,Not Active,,,Not Active,Not Active,Not Active,70,50
